SMILES strings stand for the structures.

A short description of the assay: Antioxidant activity assessed as […] by ABTS-spectrophotometric assay. More on the design: concentration or dose not given beside the values. It counts as functional. The settings on record: dose or concentration not given here.
As a reminder, the inhibition is how much of the control response was suppressed. Regarding `CCOC(=O)c1ccc(NC(=O)c2ccccc2C(=O)O)cc1`, the inhibition came out at 4.09%.

`CC(=O)c1ccc(NC(=O)c2ccccc2C(=O)O)cc1`: the inhibition was 7.42%.

Consider `COc1ccc(/C=N/NC(=O)c2ccc(NC(=O)c3ccccc3C(=O)O)cc2)cc1`, for which the inhibition turned out to be 4.29%.

Take `C/C(=N\N=C\c1ccccc1)c1ccc(NC(=O)c2ccccc2C(=O)O)cc1`: the inhibition was 12.9%.

Turning to `O=C(N/N=C/c1ccc(Cl)cc1)c1ccc(NC(=O)c2ccccc2C(=O)O)cc1`, the inhibition turned out to be 19.5%.

In the case of `O=C(NN1C(=O)c2ccccc2C1=O)c1ccc(NC(=O)c2ccccc2C(=O)O)cc1`, the inhibition amounted to 8.39%.

With `NNC(=O)c1ccc(NC(=O)c2ccccc2C(=O)O)cc1`, the inhibition came to 55.2%.

Regarding `C/C(=N\NC(=O)c1ccc(NC(=O)c2ccccc2C(=O)O)cc1)c1ccccc1`, the inhibition came out at 2.63%.

As for `C/C(=N\N=C\c1ccc(Cl)cc1)c1ccc(NC(=O)c2ccccc2C(=O)O)cc1`, the inhibition was 24.8%.

As for `COc1ccc(/C=N/N=C(\C)c2ccc(NC(=O)c3ccccc3C(=O)O)cc2)cc1`, the inhibition stood at 23%.

Take `O=C(N/N=C/c1ccccc1)c1ccc(NC(=O)c2ccccc2C(=O)O)cc1`: the inhibition was 8.78%.

Take `C/C(=N\N=C(/C)c1ccc(NC(=O)c2ccccc2C(=O)O)cc1)c1ccc(NC(=O)c2ccccc2C(=O)O)cc1`: the inhibition came to 10.6%.

Regarding `C/C(=N\NC(=O)c1ccc(NC(=O)c2ccccc2C(=O)O)cc1)c1ccc(NC(=O)c2ccccc2C(=O)O)cc1`, the inhibition amounted to 9.95%.

Consider `C/C(=N\N)c1ccc(NC(=O)c2ccccc2C(=O)O)cc1`, for which the inhibition was found to be 18.2%.

In the case of `C/C(=N\N1C(=O)c2ccccc2C1=O)c1ccc(NC(=O)c2ccccc2C(=O)O)cc1`, the inhibition stood at 4.19%.

Regarding `C/C(=N\N=C(/C)c1ccc(NC(=O)c2ccccc2C(=O)O)cc1)c1ccccc1`, the inhibition worked out at 9.85%.
